The values that follow come from article PMC5727211, “Development of Erasin: a chromone-based STAT3 inhibitor which induces apoptosis in Erlotinib-resistant lung cancer cells” (Scientific Reports, 2017).

The structures appear in SMILES notation. Where two headings read alike, the source gives them in different places.

One assay has as its target STAT3 SH2 domain (Homo sapiens, UniProt P40763). Kind of assay: FP-based competitive binding assay, STAT3 SH2 domain. How it is done:
(§1) The STAT family display a high degree of homology. […] Vilsmeyer-Haack formylation of 2-hydroxy acetophenones led to 3-formyl chromones, which were subsequently converted to the acyl hydrazones by reaction with hydrazides (Fig. 1). The target molecules were tested for their abilities to inhibit binding of fluorophore-labeled peptides to the SH2 domains of STAT1[24], STAT3[25], and STAT5b[26] in assays based on fluorescence polarization (FP). The more distantly related SH2 domain of the tyrosine kinase Lck served as additional specificity control[27],[28].
Assays were performed essentially as described. In brief, protein was incubated with the test compounds for 1 h at room temperature at the following protein concentrations: STAT1: 400 nM, STAT3: 210 nM, STAT5b: 300 nM, Lck SH2: 35 nM. Subsequently, the corresponding fluorophore-labeled peptide was added: STAT1: (5-carboxyfluorescein)-GpYDKPHVL-OH, derived from the interferon-γ receptor[24]; STAT3: (5-carboxyfluorescein)-GpYLPQTV-NH2, derived from the gp130 subunit of the IL-6 receptor[25]; STAT5b: (5-carboxyfluorescein)-GpYLVLDKW-OH, derived from the erythropoietin receptor[26]; Lck SH2: (5-carboxyfluorescein)-GpYEEIP-OH, derived from the middle-T antigen. After a further hour of incubation, fluorescence polarization was measured in a plate reader (Tecan Infinite F500). Apparent IC50 data shown in Tables 1, 2, and S1 and the inhibition curves shown in Fig. 2a correspond to this time point. The majority of the pipetting work was carried out using a Biomek FXp workstation (Beckman-Coulter). […]

The next assay has as its target T1, STAT5b SH2 domain (Homo sapiens, UniProt P51692).
T1 sequence (P51692 1-787): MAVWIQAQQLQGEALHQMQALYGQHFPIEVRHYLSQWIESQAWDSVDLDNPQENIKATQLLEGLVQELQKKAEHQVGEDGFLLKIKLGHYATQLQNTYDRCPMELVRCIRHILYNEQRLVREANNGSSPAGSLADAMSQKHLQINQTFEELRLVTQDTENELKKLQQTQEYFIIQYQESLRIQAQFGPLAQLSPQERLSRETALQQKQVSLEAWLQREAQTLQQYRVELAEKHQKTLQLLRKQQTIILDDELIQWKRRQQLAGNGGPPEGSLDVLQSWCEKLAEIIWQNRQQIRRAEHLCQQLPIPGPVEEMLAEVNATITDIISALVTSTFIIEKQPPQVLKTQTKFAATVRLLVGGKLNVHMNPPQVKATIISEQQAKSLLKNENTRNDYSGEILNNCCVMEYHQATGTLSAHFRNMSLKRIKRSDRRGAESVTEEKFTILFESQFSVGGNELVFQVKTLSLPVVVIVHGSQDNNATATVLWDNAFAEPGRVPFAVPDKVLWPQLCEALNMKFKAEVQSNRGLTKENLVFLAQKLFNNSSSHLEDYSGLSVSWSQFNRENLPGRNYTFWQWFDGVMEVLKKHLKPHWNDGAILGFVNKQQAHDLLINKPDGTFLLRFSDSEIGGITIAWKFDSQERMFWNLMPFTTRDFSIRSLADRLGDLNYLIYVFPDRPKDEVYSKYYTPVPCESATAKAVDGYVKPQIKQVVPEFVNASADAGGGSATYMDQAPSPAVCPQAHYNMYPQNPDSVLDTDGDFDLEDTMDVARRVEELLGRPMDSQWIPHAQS
Put plainly: FP-based competitive binding assay, STAT5b SH2 domain. As to conditions: at 80 µM, mean ± s.d., three experiments. The protocol: as §1
(§2) Assays were performed essentially as described. In brief, protein was incubated with the test compounds for 1 h at room temperature at the following protein concentrations: STAT1: 400 nM, STAT3: 210 nM, STAT5b: 300 nM, Lck SH2: 35 nM. Subsequently, the corresponding fluorophore-labeled peptide was added: STAT1: (5-carboxyfluorescein)-GpYDKPHVL-OH, derived from the interferon-γ receptor[24]; STAT3: (5-carboxyfluorescein)-GpYLPQTV-NH2, derived from the gp130 subunit of the IL-6 receptor[25]; STAT5b: (5-carboxyfluorescein)-GpYLVLDKW-OH, derived from the erythropoietin receptor[26]; Lck SH2: (5-carboxyfluorescein)-GpYEEIP-OH, derived from the middle-T antigen. After a further hour of incubation, fluorescence polarization was measured in a plate reader (Tecan Infinite F500). Apparent IC50 data shown in Tables 1, 2, and S1 and the inhibition curves shown in Fig. 2a correspond to this time point. The majority of the pipetting work was carried out using a Biomek FXp workstation (Beckman-Coulter). Buffer composition: 10 mM Tris pH 8.0, 50 mM NaCl, 1 mM EDTA, 1 mM dithiothreitol (DTT), 0.1% Nonidet P-40, and 2% DMSO.

The target of the next assay is T2, Lck SH2 (Homo sapiens, UniProt P06239).
T2 construct: STAT1: 400 nM, STAT3: 210 nM, STAT5b: 300 nM, Lck SH2: 35 nM
Kind of assay: FP-based competitive binding assay, Lck SH2 domain. Particulars: at 80 µM. The protocol: as §1, §2
Supplementary Figures and Table
No Structure app. IC50 [µM] or
Supplementary Table S1: Activities of test compounds in fluorescence polarization assays against the
SH2 domains of Lck. See the Supporting Methods for details. […]

Sequence of STAT3 SH2 domain (P40763 whole entry, the tested form may be a part): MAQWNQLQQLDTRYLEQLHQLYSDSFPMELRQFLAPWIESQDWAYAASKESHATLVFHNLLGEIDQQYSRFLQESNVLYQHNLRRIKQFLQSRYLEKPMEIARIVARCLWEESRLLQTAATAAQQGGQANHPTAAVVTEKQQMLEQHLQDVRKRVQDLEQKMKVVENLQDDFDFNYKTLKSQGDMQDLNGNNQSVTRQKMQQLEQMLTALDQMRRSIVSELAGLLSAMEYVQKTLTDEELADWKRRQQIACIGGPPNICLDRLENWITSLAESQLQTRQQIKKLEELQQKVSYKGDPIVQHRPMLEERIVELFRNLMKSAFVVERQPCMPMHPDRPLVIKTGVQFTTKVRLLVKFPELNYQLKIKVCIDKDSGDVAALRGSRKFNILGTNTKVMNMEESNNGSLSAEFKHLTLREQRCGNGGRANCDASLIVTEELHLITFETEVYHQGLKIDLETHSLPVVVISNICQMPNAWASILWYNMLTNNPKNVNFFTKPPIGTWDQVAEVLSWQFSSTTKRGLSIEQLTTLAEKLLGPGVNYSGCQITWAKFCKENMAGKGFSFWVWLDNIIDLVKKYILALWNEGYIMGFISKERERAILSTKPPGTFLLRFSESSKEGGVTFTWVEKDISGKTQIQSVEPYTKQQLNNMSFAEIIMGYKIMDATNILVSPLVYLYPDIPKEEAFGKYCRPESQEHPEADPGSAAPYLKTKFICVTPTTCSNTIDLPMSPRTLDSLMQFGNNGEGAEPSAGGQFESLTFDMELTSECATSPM
T2 sequence (P06239 127-224 limits assumed): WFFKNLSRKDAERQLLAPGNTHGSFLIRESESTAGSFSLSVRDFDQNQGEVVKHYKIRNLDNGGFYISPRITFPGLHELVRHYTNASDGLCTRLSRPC

One may read the IC50 as the midpoint of a concentration-inhibition curve. What is called inhibition is the change of the read-out against control, counted positive when it falls. Lower therefore signals little suppression. Turning to `CC(C)(C)c1ccc2occ(/C=N/NC(=O)c3cccnc3)c(=O)c2c1` [Compound 8], the half-inhibitory concentration (IC50) amounted to 9.7 ± 1.8 µM at STAT3 SH2 domain (1 h with protein, then 1 h with peptide, mean ± s.d., three experiments, read-out: STAT3 app. IC50) and 2.8 µM at STAT3 SH2 domain (after 9 h, read-out: apparent IC50 against wild-type STAT3 after 9 h). Besides, the “effect of omission of DTT from assay buffer on inhibitory activity against STAT3” value on STAT3 SH2 domain (2 h of incubation, without DTT) is given as “does not significantly increase the inhibitory activity”. The same compound returned an inhibition at 80 µM on STAT5b SH2 domain of 32 ± 2%. At Lck SH2, the Lck inhibition result is “no inhibition”.
For the compound `CCC(C)(C)c1ccc2occ(/C=N/NC(=O)c3cccnc3)c(=O)c2c1` [Compound 9], the inhibition at 80 µM at STAT3 SH2 domain (at 80 µM, mean ± s.d., three experiments) turned out to be 45 ± 5%. At STAT5b SH2 domain, the STAT5b inhibition result is recorded as “no inhibition at 80 µM”. Moreover, the Lck inhibition result at Lck SH2 is listed as “no inhibition”.
